Values after ≈ are worked out from the molar mass of the structure shown. Like-named read-outs stand apart in the source and are kept apart here.
What was measured:
15WZ-68 = test: MIC determination according to CLSI guidelines; type: cell-based, K. pneumoniae; details: Klebsiella pneumoniae, drug alone
Method: (§1) Bacterial strains grown on MH agar plates were resuspended in sterilized 0.85% sodium chloride solution. […] All tested culture media were finally cultured at 37° C. for 16 hours. E. coli ATCC25922 and K. pneumoniae MGH78578 in Table 1 were used as reference control bacteria.
(§2) See Table 2 and Table 2-1 below for details.

15WZ-88 = test: MIC determination according to CLSI guidelines; type: cell-based, K. pneumoniae; details: Klebsiella pneumoniae, drug alone
Method: as §1, §2

14WZ-44 = test: MIC determination according to CLSI guidelines; type: cell-based, K. pneumoniae; details: Klebsiella pneumoniae; 14WZ-44 (CRKP); drug alone
Method: as §1, §2

17ZR-61 = test: MIC determination according to CLSI guidelines; type: cell-based, K. pneumoniae; details: Klebsiella pneumoniae, drug alone
Method: as §1, §2

16ZR-10 = test: MIC determination according to CLSI guidelines; type: cell-based, K. pneumoniae; details: Klebsiella pneumoniae, drug alone
Method: as §1, §2

CR-HvKP 1 [1] = test: MIC determination according to CLSI guidelines; type: cell-based, K. pneumoniae; details: Klebsiella pneumoniae, drug alone
Method: as §1, §2

14WZ-52 = test: MIC determination according to CLSI guidelines; type: cell-based, K. pneumoniae; details: Klebsiella pneumoniae, drug alone
Method: as §1, §2

16ZR-33 = test: MIC determination according to CLSI guidelines; type: cell-based, K. pneumoniae; details: Klebsiella pneumoniae, drug alone
Method: as §1, §2

CR-HvKP 2 = test: MIC determination according to CLSI guidelines; type: cell-based, K. pneumoniae; details: Klebsiella pneumoniae, drug alone
Method: as §1, §2

14WZ-51 = test: MIC determination according to CLSI guidelines; type: cell-based, K. pneumoniae; details: Klebsiella pneumoniae, drug alone
Method: as §1, §2

16WZ-134 = test: MIC determination according to CLSI guidelines; type: cell-based, K. pneumoniae; details: Klebsiella pneumoniae, drug alone
Method: as §1, §2

16ZR-58 = test: MIC determination according to CLSI guidelines; type: cell-based, K. pneumoniae; details: Klebsiella pneumoniae, drug alone
Method: as §1, §2

CR-HvKP 3 = test: MIC determination according to CLSI guidelines; type: cell-based, K. pneumoniae; details: Klebsiella pneumoniae, drug alone
Method: as §1, §2

14WZ-43 = test: MIC determination according to CLSI guidelines; type: cell-based, K. pneumoniae; details: Klebsiella pneumoniae, drug alone
Method: as §1, §2

17ZR-75 = test: MIC determination according to CLSI guidelines; type: cell-based, K. pneumoniae; details: Klebsiella pneumoniae, drug alone
Method: as §1, §2

14WZ-45 = test: MIC determination according to CLSI guidelines; type: cell-based, K. pneumoniae; details: Klebsiella pneumoniae, drug alone
Method: as §1, §2

CR-HvKP 5 = test: MIC determination according to CLSI guidelines; type: cell-based, K. pneumoniae; details: Klebsiella pneumoniae, drug alone
Method: as §1, §2

17ZR-63 = test: MIC determination according to CLSI guidelines; type: cell-based, K. pneumoniae; details: Klebsiella pneumoniae, drug alone
Method: as §1, §2

16ZR-93 = test: MIC determination according to CLSI guidelines; type: cell-based, K. pneumoniae; details: Klebsiella pneumoniae, drug alone
Method: as §1, §2

17ZR-31 = test: MIC determination according to CLSI guidelines; type: cell-based, K. pneumoniae; details: Klebsiella pneumoniae, drug alone
Method: as §1, §2

CR-HvKP 1 [2] = test: microbe, parasite or virus in culture; type: cell-based, K. pneumoniae; details: Klebsiella pneumoniae, read-out: MIC after serial passage with incremental drug concentrations
Method: The principle of this experiment is that sub-inhibitory concentrations of antibiotics will induce drug-resistant mutations of bacteria.
Materials and methods: CR-HvKP 1 was selected as the representative strain. […] After 24 hours of culture, the culture possibly containing drug-resistant mutant bacteria was diluted 1:100 into fresh LB medium containing 2-fold concentration of drugs. This continuous transfer was repeated for six generations, i.e. the experiment was conducted for six days (the concentration on the second day was twice that on the first day, with daily increment).

CR-HvKP 1 [3] = details: for Viability (%): CR-HvKP 1 infected ICR mice; for mortality rate of mice: oral gavage every 12 hours
Method: The ICR mice were injected with 3×10^7 CFU of CR-HvKP 1 intraperitoneally to create sepsis infection models.

E. coli ATCC25922 = test: MIC determination according to CLSI guidelines; type: cell-based; details: Escherichia coli, drug alone
Method: as §1, §2

K. pneumoniae MGH78578 = test: MIC determination according to CLSI guidelines; type: cell-based; details: Klebsiella pneumoniae, drug alone
Method: as §1, §2

HepG2 cells = test: MTT experiment; details: MTT assay
K. pneumoniae = test: Screening of FDA-approved drug library; type: cell-based; details: drug library screen
P. aeruginosa = test: Screening of FDA-approved drug library; type: cell-based; details: drug library screen
[4] = target: T1, K. pneumoniae RNA polymerase (Klebsiella pneumoniae subsp. pneumoniae, UniProt A6TGP0+A6TGP1); test: ITC assay; type: binding; details: 25° C.
T1 construct: made in house; host or cells: E. coli BL21(DE3)
Text: We successfully co-expressed the subunits of K. pneumoniae RNAp to prepare the required core enzyme by a dual plasmids expression system, pACYC-Duet and pET-Duet. The method is briefly described as follows:
Recombinant plasmids containing different subunits of RNAP (rpoA, rpoB, rpoC, rpoD, rpoZ) were constructed using the Gibson assembly method. First, all the required fragments were obtained by PCR amplification from the K. pneumoniae MGH78578 genome and two Duet plasmids, respectively. All fragments, Gibson Assembly Master Mix (NEB, #E2611S) and deionized water were then mixed and incubated at 50° C. for 60 minutes. The recombinant plasmids were transformed into E. coli DH5α by heat shock method. After verification via sequencing, the recombinant plasmids were then transformed into E. coli BL21(DE3). Plasmids pACYC Duet rpoA-rpoZ-Amp (encoding […]) and pET Duet rpoB-rpoC-Kana (encoding β and β′ subunits) were transformed together into E. coli BL21 to prepare RNA core polymerase by in vivo assembly. The σ factor σ subunit was obtained by overexpression of E. coli BL21 containing the plasmid pET-Duet-rpoD-Kana alone. The recombinant bacteria were first cultured in LB agar containing 50 μg/mL of kanamycin and 100 μg/mL of ampicillin and then inoculated into LB broth containing the same concentration of antibiotics at 37° C., 250 rpm. After the bacterial turbidity reached an OD600 of 0.6, 0.5 mM IPTG was added and cultured at 16° C., 200 rpm for 16 hours. Cells were harvested by centrifugation (5000 rpm, 20 minutes at 4° C.). The protein was then purified by affinity chromatography. To further obtain bacterial RNAp holoenzyme, RNAp core enzyme was incubated with sigma subunits at a molar ratio of 1:1 at 37° C. for 15 minutes and then used for subsequent ITC assays.
The test was performed at 25° C. using a Malvern MicroCal PEAQ-ITC automatic ultrasensitive isothermal titration calorimeter (MicroCal (Malvern Instruments), Malvern, UK). […] The solution was stirred at 750 rpm. MicroCal PEAQ-ITC analysis software was used to fit the data to a one site binding model.

CR-HvKP 1 [5] = test: String test on sheep blood agar; type: cell-based, K. pneumoniae; details: drug alone
Method: 1. A series of tests were performed according to the following process. CR-HvKP 1 was inoculated onto the agar plate containing 5% sheep blood and different drugs and cultured overnight at 37° C. The series test refers to a test in which viscous strings greater than 5 mm in length are formed when a single colony is stretched with a standard bacteriological inoculating loop, which can be considered a virulent strain of a high-viscosity phenotype.

E. coli = test: Screening of FDA-approved drug library; type: cell-based; details: drug library screen
CR-HvKP 1 [6] = test: Mucoviscosity assay; type: cell-based, K. pneumoniae; details: drug alone, OD600 of supernatant
Method: 2. Mucoviscosity assay: The overnight culture of CR-HvKP 1 was re-inoculated into fresh LB broth to produce a bacterial broth with an OD600 of 0.3. Different drugs were then added and cultured with shaking at 37° C. for 6 hours. The culture was then diluted to an OD600 of 1.0 and centrifuged at 1,000×g for 2 minutes before the supernatant was obtained for OD600 measurement.

rmpA2 = test: Virulence gene expression by qRT-PCR; type: cell-based, K. pneumoniae; details: drug alone
CR-HvKP 1 [7] = details: 20 μg/mL zidovudine

T1 sequence (A6TGP1 whole entry): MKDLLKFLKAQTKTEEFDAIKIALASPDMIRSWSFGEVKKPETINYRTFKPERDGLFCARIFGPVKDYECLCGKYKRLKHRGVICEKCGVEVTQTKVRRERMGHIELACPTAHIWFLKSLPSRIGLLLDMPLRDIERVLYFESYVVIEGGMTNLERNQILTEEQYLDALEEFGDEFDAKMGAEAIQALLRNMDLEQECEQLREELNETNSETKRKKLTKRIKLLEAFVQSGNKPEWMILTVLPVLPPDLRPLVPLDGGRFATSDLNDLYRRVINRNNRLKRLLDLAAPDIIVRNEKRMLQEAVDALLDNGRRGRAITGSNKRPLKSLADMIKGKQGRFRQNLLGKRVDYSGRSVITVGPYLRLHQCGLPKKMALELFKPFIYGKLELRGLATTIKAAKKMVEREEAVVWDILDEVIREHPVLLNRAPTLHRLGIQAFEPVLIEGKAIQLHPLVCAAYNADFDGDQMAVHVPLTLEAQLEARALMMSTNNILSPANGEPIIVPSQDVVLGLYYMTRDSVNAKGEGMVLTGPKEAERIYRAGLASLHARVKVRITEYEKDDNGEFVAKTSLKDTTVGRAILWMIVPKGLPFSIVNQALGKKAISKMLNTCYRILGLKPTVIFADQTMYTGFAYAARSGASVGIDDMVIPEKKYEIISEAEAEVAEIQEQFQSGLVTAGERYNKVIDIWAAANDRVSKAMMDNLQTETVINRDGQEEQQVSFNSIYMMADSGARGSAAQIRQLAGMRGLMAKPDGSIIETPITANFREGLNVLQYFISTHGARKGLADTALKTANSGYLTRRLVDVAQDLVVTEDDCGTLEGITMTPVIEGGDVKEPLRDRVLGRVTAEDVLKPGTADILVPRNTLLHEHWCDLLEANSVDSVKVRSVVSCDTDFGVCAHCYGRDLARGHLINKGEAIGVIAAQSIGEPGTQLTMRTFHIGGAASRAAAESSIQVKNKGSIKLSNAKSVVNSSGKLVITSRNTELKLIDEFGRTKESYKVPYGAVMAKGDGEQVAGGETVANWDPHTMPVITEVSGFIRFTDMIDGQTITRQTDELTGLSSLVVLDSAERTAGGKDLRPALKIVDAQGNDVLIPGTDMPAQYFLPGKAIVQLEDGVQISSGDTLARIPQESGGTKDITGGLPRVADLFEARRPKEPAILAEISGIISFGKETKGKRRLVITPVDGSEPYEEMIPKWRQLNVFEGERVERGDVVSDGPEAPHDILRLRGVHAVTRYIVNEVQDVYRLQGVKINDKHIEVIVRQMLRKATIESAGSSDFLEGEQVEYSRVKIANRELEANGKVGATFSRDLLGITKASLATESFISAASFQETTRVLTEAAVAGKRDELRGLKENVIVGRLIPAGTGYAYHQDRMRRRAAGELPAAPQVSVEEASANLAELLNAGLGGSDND
T1 sequence (A6TGP0 whole entry): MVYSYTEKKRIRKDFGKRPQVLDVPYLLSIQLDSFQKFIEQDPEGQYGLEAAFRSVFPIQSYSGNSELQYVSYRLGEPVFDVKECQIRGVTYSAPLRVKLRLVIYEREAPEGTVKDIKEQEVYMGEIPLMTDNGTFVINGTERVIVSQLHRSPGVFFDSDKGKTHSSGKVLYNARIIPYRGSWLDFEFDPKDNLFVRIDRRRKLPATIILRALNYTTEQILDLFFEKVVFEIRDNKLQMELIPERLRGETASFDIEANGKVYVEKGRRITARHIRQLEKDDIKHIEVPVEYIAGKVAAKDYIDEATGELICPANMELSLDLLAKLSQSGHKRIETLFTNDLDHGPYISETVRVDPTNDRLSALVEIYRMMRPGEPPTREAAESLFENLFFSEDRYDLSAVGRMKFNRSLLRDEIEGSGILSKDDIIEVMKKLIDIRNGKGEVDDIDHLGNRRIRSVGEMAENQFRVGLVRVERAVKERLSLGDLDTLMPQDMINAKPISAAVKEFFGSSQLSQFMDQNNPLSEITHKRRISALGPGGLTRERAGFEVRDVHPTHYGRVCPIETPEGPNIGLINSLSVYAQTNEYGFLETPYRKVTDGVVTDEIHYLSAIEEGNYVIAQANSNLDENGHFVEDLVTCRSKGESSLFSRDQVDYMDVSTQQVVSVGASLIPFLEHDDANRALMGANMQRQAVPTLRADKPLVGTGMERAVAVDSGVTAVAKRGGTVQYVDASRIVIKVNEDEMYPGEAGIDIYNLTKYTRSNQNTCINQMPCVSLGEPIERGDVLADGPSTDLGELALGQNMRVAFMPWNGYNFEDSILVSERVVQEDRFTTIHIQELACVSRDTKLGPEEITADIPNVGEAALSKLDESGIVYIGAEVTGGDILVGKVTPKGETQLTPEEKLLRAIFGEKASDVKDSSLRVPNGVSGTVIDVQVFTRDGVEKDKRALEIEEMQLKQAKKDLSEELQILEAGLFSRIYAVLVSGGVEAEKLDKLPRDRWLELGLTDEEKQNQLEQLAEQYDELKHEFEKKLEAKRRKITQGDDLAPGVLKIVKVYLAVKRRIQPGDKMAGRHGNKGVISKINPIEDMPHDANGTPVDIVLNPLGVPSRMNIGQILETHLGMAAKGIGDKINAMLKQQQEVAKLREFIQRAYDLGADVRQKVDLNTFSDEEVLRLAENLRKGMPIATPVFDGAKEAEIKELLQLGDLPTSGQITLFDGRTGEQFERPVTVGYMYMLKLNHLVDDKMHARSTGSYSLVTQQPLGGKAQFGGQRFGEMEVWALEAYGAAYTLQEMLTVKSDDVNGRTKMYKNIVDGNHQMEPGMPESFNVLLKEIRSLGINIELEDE
T1 sequence (A6TEU8 whole entry, further chain): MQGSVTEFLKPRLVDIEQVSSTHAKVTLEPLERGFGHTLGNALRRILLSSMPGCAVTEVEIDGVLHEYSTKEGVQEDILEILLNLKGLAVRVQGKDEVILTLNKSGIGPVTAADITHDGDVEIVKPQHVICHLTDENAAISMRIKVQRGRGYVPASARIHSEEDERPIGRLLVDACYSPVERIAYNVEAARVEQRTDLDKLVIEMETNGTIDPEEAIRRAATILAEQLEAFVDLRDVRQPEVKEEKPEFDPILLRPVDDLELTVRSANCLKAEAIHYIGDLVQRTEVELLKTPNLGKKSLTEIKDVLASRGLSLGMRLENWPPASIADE
Method for red blood cells (RBCs): In-vitro method: Hemolysis experiment: The blood from fresh ICR mice was collected by cardiac blood withdrawal, preserved in K2-EDTA tubes (BD Vacultainer® K2 EDTA, Becton-Dickinson) and temporarily stored at 4° C. The whole blood sample was centrifuged (500 g, 10 minutes) to remove plasma, and then washed three times with PBS buffer. After the last washing, 100 μL of the remaining red blood cells (RBCs) were carefully aspirated from the bottom and diluted with 4.9 mL PBS buffer to prepare a 2% blood solution. […] 50 μL of diluted RBCs were mixed with 100 μL of milli-Q H20 (100% hemolysis) or 100 μL of drug-free PBS as positive and negative controls, respectively. It should be noted that rifampicin itself was red, so the absorbance of PBS with different concentrations of the drug was used as background correction in the calculation. The mixture was mixed gently and incubated at 37° C. for 30 minutes. 80 μL of supernatant was obtained by centrifugation at 2000×g for 6 minutes, and the optical density of the supernatant at 541 nm was measured with a microplate reader (SpectraMax 190, Moleclar Devices).

Compound: CO[C@H]1/C=C/O[C@@]2(C)Oc3c(C)c(O)c4c(O)c(c(/C=N/N5CCN(C)CC5)c(O)c4c3C2=O)NC(=O)/C(C)=C\C=C\[C@H](C)[C@H](O)[C@@H](C)[C@@H](O)[C@@H](C)[C@H](OC(C)=O)[C@@H]1C [rifampicin]
- hemolysis (red blood cells (RBCs)): low level
- MIC (15WZ-68): 32 µg/mL (≈ 38.9 µM)
- MIC (15WZ-88): 16 µg/mL (≈ 19.4 µM)
- MIC (14WZ-44): 32 µg/mL (≈ 38.9 µM)
- MIC (17ZR-61): 32 µg/mL (≈ 38.9 µM)
- MIC (16ZR-10): 32 µg/mL (≈ 38.9 µM)
- MIC (CR-HvKP 1 [1]): 32 µg/mL (≈ 38.9 µM)
- MIC (14WZ-52): 32 µg/mL (≈ 38.9 µM)
- MIC (16ZR-33): 16 µg/mL (≈ 19.4 µM)
- MIC (CR-HvKP 2): 32 µg/mL (≈ 38.9 µM)
- MIC (14WZ-51): 32 µg/mL (≈ 38.9 µM)
- MIC (16WZ-134): 32 µg/mL (≈ 38.9 µM)
- MIC (16ZR-58): 32 µg/mL (≈ 38.9 µM)
- MIC (CR-HvKP 3): 32 µg/mL (≈ 38.9 µM)
- MIC (14WZ-43): 32 µg/mL (≈ 38.9 µM)
- MIC (17ZR-75): 64 µg/mL (≈ 77.8 µM)
- MIC (14WZ-45): 16 µg/mL (≈ 19.4 µM)
- MIC (CR-HvKP 5): 32 µg/mL (≈ 38.9 µM)
- MIC (17ZR-63): 32 µg/mL (≈ 38.9 µM)
- MIC (16ZR-93): > 64 µg/mL
- MIC (17ZR-31): 32 µg/mL (≈ 38.9 µM)
- MIC (CR-HvKP 1 [2]): 4100 µg/mL (≈ 4980 µM)
- Viability (%) (CR-HvKP 1 [3]; ZDV 0 mg/kg + RIF 8 mg/kg): 30%
- mortality rate of mice (CR-HvKP 1 [3]; rifampicin 8 mg/kg only, in 72 hours): 66%
- MIC (E. coli ATCC25922): 8 µg/mL (≈ 9.72 µM)
- MIC (K. pneumoniae MGH78578): 32 µg/mL (≈ 38.9 µM)
- HepG2 cell lysis (HepG2 cells): low level

Compound: Cc1cn([C@H]2C[C@H](N=[N+]=[N-])[C@@H](CO)O2)c(=O)[nH]c1=O [zidovudine]
- antibacterial effect (K. pneumoniae): exhibited antibacterial effect
- antibacterial effect (P. aeruginosa): exhibited antibacterial effect
- enthalpy (ΔH) [4]: -335 ± 520 kJ/mol
- reaction stoichiometry (N sites) [4]: 0.239±0.273
- Kd ([4]; one site binding model): 7.8 µM
- string length (CR-HvKP 1 [5]): reduce
- MIC (15WZ-68): 2.5 µg/mL (≈ 9.35 µM)
- MIC (15WZ-88): 2.5 µg/mL (≈ 9.35 µM)
- MIC (14WZ-44): 2.5 µg/mL (≈ 9.35 µM)
- MIC (17ZR-61): 1.25 µg/mL (≈ 4.68 µM)
- MIC (16ZR-10): 0.625 µg/mL (≈ 2.34 µM)
- MIC (CR-HvKP 1 [1]): 2.5 µg/mL (≈ 9.35 µM)
- MIC (14WZ-52): 1.25 µg/mL (≈ 4.68 µM)
- MIC (16ZR-33): 5 µg/mL (≈ 18.7 µM)
- MIC (CR-HvKP 2): 2.5 µg/mL (≈ 9.35 µM)
- MIC (14WZ-51): 2.5 µg/mL (≈ 9.35 µM)
- MIC (16WZ-134): > 20 µg/mL
- MIC (16ZR-58): 2.5 µg/mL (≈ 9.35 µM)
- MIC (CR-HvKP 3): 2.5 µg/mL (≈ 9.35 µM)
- MIC (14WZ-43): 2.5 µg/mL (≈ 9.35 µM)
- MIC (17ZR-75): 5 µg/mL (≈ 18.7 µM)
- MIC (14WZ-45): 2.5 µg/mL (≈ 9.35 µM)
- MIC (CR-HvKP 5): 5 µg/mL (≈ 18.7 µM)
- MIC (17ZR-63): 1.25 µg/mL (≈ 4.68 µM)
- MIC (16ZR-93): > 20 µg/mL
- MIC (17ZR-31): 2.5 µg/mL (≈ 9.35 µM)
- antibacterial effect (E. coli): exhibited antibacterial effect
- hypermucoviscosity (CR-HvKP 1 [6]): reduce
- MIC (CR-HvKP 1 [2]): 1280 µg/mL (≈ 4790 µM)
- expression of bacterial virulence factor rmpA2 (rmpA2): inhibition
- Viability (%) (CR-HvKP 1 [3]; ZDV 10 mg/kg + RIF 0 mg/kg): 0%
- mortality rate of mice (CR-HvKP 1 [3]; zidovudine 10 mg/kg only, in 36 hours): 100%
- MIC (E. coli ATCC25922): 0.625 µg/mL (≈ 2.34 µM)
- MIC (K. pneumoniae MGH78578): 5 µg/mL (≈ 18.7 µM)
- population size of CR-HvKP 1 in time-kill curve (CR-HvKP 1 [7]): reduced in the first 4 hours and then re-grew to reach the same size as no treatment control at 24 hours
- HepG2 cell lysis (HepG2 cells): low level

— patent publication US12016874B2, “Methods and compositions for treating carbapenem-resistant klebsiella pneumoniae infections” (City University of Hong Kong, priority 2022, dated 2024)
